1 compound from patent US5112754A, “Tissue plasminogen-activating factor and nonoclonal antibody” (Snow Brand Milk Products Co., Ltd., priority 1985, dated 1992) can be followed below.

Values joined by “and” are separate entries in the source; they are usually repeats but may differ in a detail not shown here. Equal values may be shown once. Where a SMILES comes first, the peptide text is derived from it. [ ]: non-standard residue; d: D form. The star is where a group is joined. pNA = O=[N+]([O-])c1ccc(N*)cc1

What all share (format): biochemical
The target of assay [1] is T1, New type of plasminogen activator (non-urokinase tissue type, IMR-90 t-PA) produced by fibroblasts derived from human fetal lung tissue (Homo sapiens, UniProt P00750).
T1 construct: Normal fibroblasts of strain IMR-90 (ATCC, CCL-186) derived from human fetal lung tissue were cultured in a serum-free medium; endogenous in cells; host or cells: IMR-90 (ATCC CCL-186) normal human fetal lung fibroblasts; protein purified from the serum-free culture medium
In words: Km and Vmax for synthetic substrate S-2288, new type of plasminogen activator.

The target in assay [2] is Urokinase (high-molecular type) (Homo sapiens, UniProt P00749). In words: Km for synthetic substrate S-2288, urokinase high-molecular type. The following applies: for comparison.
The target in assay [3] is Urokinase (low-molecular type) (Homo sapiens, UniProt P00749). The experiment in a line: Vmax for synthetic substrate S-2288, urokinase low-molecular type. The following applies: for comparison.

T1 sequence (P00750 36-562): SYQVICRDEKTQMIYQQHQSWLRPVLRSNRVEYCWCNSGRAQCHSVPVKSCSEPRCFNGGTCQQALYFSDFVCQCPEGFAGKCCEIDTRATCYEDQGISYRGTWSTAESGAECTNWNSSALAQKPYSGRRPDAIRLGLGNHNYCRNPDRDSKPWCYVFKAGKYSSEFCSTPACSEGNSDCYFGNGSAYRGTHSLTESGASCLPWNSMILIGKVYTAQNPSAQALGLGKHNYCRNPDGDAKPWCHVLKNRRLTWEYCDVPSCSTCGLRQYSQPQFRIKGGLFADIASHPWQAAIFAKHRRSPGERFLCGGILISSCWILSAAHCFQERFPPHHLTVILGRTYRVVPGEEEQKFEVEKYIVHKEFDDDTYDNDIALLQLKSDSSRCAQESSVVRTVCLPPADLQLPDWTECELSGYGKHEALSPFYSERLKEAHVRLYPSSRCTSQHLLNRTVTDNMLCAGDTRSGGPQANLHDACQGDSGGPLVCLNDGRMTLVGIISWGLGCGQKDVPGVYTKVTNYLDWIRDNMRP

What is called Km is the substrate concentration at which the rate is half of its maximum. In the case of `CC[C@@H](C)[C@@H](N)C(=O)N1CCC[C@H]1C(=O)N[C@@H](CCCNC(=N)N)C(=O)Nc1ccc([N+](=O)[O-])cc1` [S-2288, H.D.Ile-Pro-Arg-pNa.2HCl] (H-[dI]-Pro-Arg-pNA), the Michaelis-Menten constant (Km) was 1160 µM and ~1160 µM in assay [1] (purified new type of plasminogen activator); 500 µM in assay [2]. Besides, the “Vmax for substrate S-2288” value in assay [1] (purified new type of plasminogen activator, Table 1) is 1.7 × 10^-8 mol/min-unit; in assay [1] (purified plasminogen activator, unit as printed in running text b36), “about 1.7×10^-8 mol/liter”; in assay [3], 5 × 10^-10 mol/min-unit.
